Reference: the supplement of paper PMC6045584
± gives the standard deviation of the averaged measurements.

These test systems were tested with CC(=O)O[C@H]1C(=O)[C@@]2(C)[C@H]([C@H](OC(=O)c3ccccc3)[C@]3(O)C[C@H](OC(=O)[C@H](O)[C@@H](NC(=O)c4ccccc4)c4ccccc4)C(C)=C1C3(C)C)[C@]1(OC(C)=O)CO[C@@H]1C[C@@H]2O [PACLITAXEL] (assay: surviving fraction relative to DMSO-only wells; higher = less growth inhibition). Details: 50 nM; exposure time: 5 days.
In short: (§1)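 A line counted only if its three screens reached replicate Pearson r >0.7 and median Z' >0.3. Tumour cells in log phase were seeded at 250–500 per well in 384-well plates and, after 24 hours, kept in continuous contact with inhibitors at 0.5, 1, 5, 10, 50, 100, 500 and 1000 nM for five days. Surviving fraction was taken from CellTiter-Glo luminescence relative to the median of DMSO-only wells.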

Row | Test System | surviving fraction
1 | 143B BONE | 0.134 ± 0.0099
2 | A549 LUNG | 0.182 ± 0.011
3 | ASKA SYNOVIAL | 0.262 ± 0.0055
4 | BT20 BREAST | 0.0593 ± 0.0063
5 | BT549 BREAST | 0.049 ± 0.0079
6 | CADOES1 SOFT TISSUE | 0.38 ± 0.11
7 | CAL51 BREAST | 0.0427 ± 0.0018
8 | CAL72 BONE | 0.191 ± 0.018
9 | CAL120 BREAST | 0.105 ± 0.003
10 | CASKI CERVIX | 0.037 ± 0.005
11 | CHLA90 AUTONOMIC GANGLIA | 0.0937 ± 0.01
12 | CME SYNOVIAL | 0.258 ± 0.02
13 | COLO320DM LARGE INTESTINE | 0.525 ± 0.033
14 | DU4475 BREAST | 0.0387 ± 0.013
15 | G292 BONE | 0.148 ± 0.0067
16 | H23 LUNG | 0.113 ± 0.0091
17 | HCC38 BREAST | 0.112 ± 0.053
18 | HCC78 LUNG | 0.0717 ± 0.019
19 | HCC202 BREAST | 0.362 ± 0.027

Row | Test System | surviving fraction
20 | HCC1806 BREAST | 0.0307 ± 0.0057
21 | HMLE3 BREAST | 0.05 ± 0.007
22 | HMT3552 BREAST | 0.106
23 | HOS BONE | 0.0357 ± 0.004
24 | HOSMNG BONE | 0.29 ± 0.031
25 | HS57T BREAST | 0.0457 ± 0.0042
26 | HSSYII SYNOVIAL | 0.0613 ± 0.0025
27 | HT1080 SOFT TISSUE | 0.0427 ± 0.0031
28 | HU09 BONE | 0.0367 ± 0.0029
29 | HUO3N1 BONE | 0.129 ± 0.0068
30 | JIMT1 BREAST | 0.0905 ± 0.0083
31 | LM7 BONE | 0.0847 ± 0.0068
32 | LNCAP PROSTATE | 0.0417 ± 0.0015
33 | MDAMB134 BREAST | 0.587 ± 0.11
34 | MDAMB157 BREAST | 0.0473 ± 0.016
35 | MDAMB231 BREAST | 0.121 ± 0.0031
36 | MDAMB361 BREAST | 0.585 ± 0.041
37 | MDAMB436 BREAST | 0.192 ± 0.03
38 | MDAMB468 BREAST | 0.064 ± 0.001

Same assay, conditions: 100 nM; exposure time: 5 days

Row | Test System | surviving fraction
39 | 22RV1 PROSTATE | 0.053 ± 0.0036
40 | 93VU HEADNECK | 0.134 ± 0.0064
41 | 143B BONE | 0.089 ± 0.013
42 | A549 LUNG | 0.186 ± 0.01
43 | ASKA SYNOVIAL | 0.23 ± 0.011
44 | BT20 BREAST | 0.058 ± 0.01
45 | BT549 BREAST | 0.041 ± 0.0027
46 | CADOES1 SOFT TISSUE | 0.188 ± 0.058
47 | CAL51 BREAST | 0.0332 ± 0.0037
48 | CAL72 BONE | 0.135 ± 0.031
49 | CAL120 BREAST | 0.0962 ± 0.0023
50 | CASKI CERVIX | 0.0387 ± 0.0067
51 | CHLA90 AUTONOMIC GANGLIA | 0.076 ± 0.016
52 | CME SYNOVIAL | 0.219 ± 0.028
53 | COLO320DM LARGE INTESTINE | 0.292 ± 0.014
54 | DU4475 BREAST | 0.044 ± 0.0089
55 | G292 BONE | 0.147 ± 0.0013
56 | H23 LUNG | 0.108 ± 0.0042
57 | HCC38 BREAST | 0.094 ± 0.026
58 | HCC78 LUNG | 0.077 ± 0.011

Row | Test System | surviving fraction
59 | HCC202 BREAST | 0.362 ± 0.047
60 | HCC1806 BREAST | 0.0207 ± 0.0029
61 | HMLE3 BREAST | 0.0377 ± 0.0042
62 | HMT3552 BREAST | 0.099
63 | HOS BONE | 0.025 ± 0.001
64 | HOSMNG BONE | 0.12 ± 0.0079
65 | HS57T BREAST | 0.0463 ± 0.0065
66 | HSSYII SYNOVIAL | 0.0585 ± 0.0041
67 | HT1080 SOFT TISSUE | 0.031 ± 0.0017
68 | HU09 BONE | 0.0263 ± 0.0042
69 | HUO3N1 BONE | 0.115 ± 0.0063
70 | JIMT1 BREAST | 0.0907 ± 0.0037
71 | LM7 BONE | 0.075 ± 0.0044
72 | LNCAP PROSTATE | 0.0347 ± 0.0038
73 | MDAMB134 BREAST | 0.4935 ± 0.00071
74 | MDAMB157 BREAST | 0.0687 ± 0.028
75 | MDAMB231 BREAST | 0.121 ± 0.0088
76 | MDAMB361 BREAST | 0.593 ± 0.056
77 | MDAMB436 BREAST | 0.173 ± 0.016
78 | MDAMB468 BREAST | 0.0567 ± 0.0091

Same assay, conditions: 500 nM; exposure time: 5 days

Row | Test System | surviving fraction
79 | 22RV1 PROSTATE | 0.0467 ± 0.0057
80 | 93VU HEADNECK | 0.135 ± 0.018
81 | 143B BONE | 0.0575 ± 0.0092
82 | A549 LUNG | 0.172 ± 0.0087
83 | ASKA SYNOVIAL | 0.199 ± 0.016
84 | BT20 BREAST | 0.0513 ± 0.0049
85 | BT549 BREAST | 0.038 ± 0.0053
86 | CADOES1 SOFT TISSUE | 0.052 ± 0.0017
87 | CAL51 BREAST | 0.0295 ± 0.0005
88 | CAL72 BONE | 0.112 ± 0.0096
89 | CAL120 BREAST | 0.0798 ± 0.0061
90 | CASKI CERVIX | 0.0313 ± 0.005
91 | CHLA90 AUTONOMIC GANGLIA | 0.0513 ± 0.0046
92 | CME SYNOVIAL | 0.2 ± 0.041
93 | COLO320DM LARGE INTESTINE | 0.161 ± 0.015
94 | DU4475 BREAST | 0.0463 ± 0.02
95 | G292 BONE | 0.1228 ± 0.00076
96 | H23 LUNG | 0.0867 ± 0.0067
97 | HCC38 BREAST | 0.108 ± 0.0074
98 | HCC78 LUNG | 0.0673 ± 0.013

Row | Test System | surviving fraction
99 | HCC202 BREAST | 0.352 ± 0.032
100 | HCC1806 BREAST | 0.0253 ± 0.0031
101 | HMLE3 BREAST | 0.034 ± 0.0027
102 | HMT3552 BREAST | 0.1
103 | HOS BONE | 0.0223 ± 0.0011
104 | HOSMNG BONE | 0.0573 ± 0.0021
105 | HS57T BREAST | 0.0353 ± 0.0021
106 | HSSYII SYNOVIAL | 0.049 ± 0.0033
107 | HT1080 SOFT TISSUE | 0.0293 ± 0.0025
108 | HU09 BONE | 0.0247 ± 0.0015
109 | HUO3N1 BONE | 0.094 ± 0.006
110 | JIMT1 BREAST | 0.0727 ± 0.008
111 | LM7 BONE | 0.0723 ± 0.0015
112 | LNCAP PROSTATE | 0.0387 ± 0.0021
113 | MDAMB134 BREAST | 0.491 ± 0.072
114 | MDAMB157 BREAST | 0.0473 ± 0.0098
115 | MDAMB231 BREAST | 0.0907 ± 0.0055
116 | MDAMB361 BREAST | 0.516 ± 0.046
117 | MDAMB436 BREAST | 0.171 ± 0.014
118 | MDAMB468 BREAST | 0.057 ± 0.0036

Same assay, conditions: 1000 nM; exposure time: 5 days

Row | Test System | surviving fraction
119 | 22RV1 PROSTATE | 0.0553 ± 0.0046
120 | 93VU HEADNECK | 0.132 ± 0.0017
121 | 143B BONE | 0.0655 ± 0.0064
122 | A549 LUNG | 0.179 ± 0.0038
123 | ASKA SYNOVIAL | 0.229 ± 0.01
124 | BT20 BREAST | 0.0587 ± 0.011
125 | BT549 BREAST | 0.0463 ± 0.014
126 | CADOES1 SOFT TISSUE | 0.0457 ± 0.0015
127 | CAL51 BREAST | 0.0332 ± 0.0027
128 | CAL72 BONE | 0.123 ± 0.025
129 | CAL120 BREAST | 0.0923 ± 0.007
130 | CASKI CERVIX | 0.0303 ± 0.0045
131 | CHLA90 AUTONOMIC GANGLIA | 0.0577 ± 0.009
132 | CME SYNOVIAL | 0.262 ± 0.02
133 | COLO320DM LARGE INTESTINE | 0.116 ± 0.0099
134 | DU4475 BREAST | 0.035 ± 0.0085
135 | G292 BONE | 0.128 ± 0.0067
136 | H23 LUNG | 0.089 ± 0.003
137 | HCC38 BREAST | 0.0823 ± 0.0076
138 | HCC78 LUNG | 0.1 ± 0.018

Row | Test System | surviving fraction
139 | HCC202 BREAST | 0.327 ± 0.098
140 | HCC1806 BREAST | 0.021 ± 0.0017
141 | HMLE3 BREAST | 0.0287 ± 0.0011
142 | HMT3552 BREAST | 0.094
143 | HOS BONE | 0.0217 ± 0.0015
144 | HOSMNG BONE | 0.063 ± 0.0044
145 | HS57T BREAST | 0.0403 ± 0.007
146 | HSSYII SYNOVIAL | 0.0538 ± 0.0021
147 | HT1080 SOFT TISSUE | 0.0317 ± 0.00058
148 | HU09 BONE | 0.0247 ± 0.0042
149 | HUO3N1 BONE | 0.1 ± 0.018
150 | JIMT1 BREAST | 0.0808 ± 0.0025
151 | LM7 BONE | 0.0703 ± 0.004
152 | LNCAP PROSTATE | 0.0477 ± 0.0055
153 | MDAMB134 BREAST | 0.598 ± 0.077
154 | MDAMB157 BREAST | 0.069 ± 0.011
155 | MDAMB231 BREAST | 0.0993 ± 0.0078
156 | MDAMB361 BREAST | 0.546 ± 0.027
157 | MDAMB436 BREAST | 0.198 ± 0.018
158 | MDAMB468 BREAST | 0.0563 ± 0.013

Each test system was assayed with O=C(O)C1(C(=O)O)CCC1.[NH2-].[NH2-].[Pt+2] [CARBOPLATIN] in the same assay as above. Details: 0.5 nM; exposure time: 5 days.
In short: as §1

Row | Test System | surviving fraction
159 | 22RV1 PROSTATE | 1.1 ± 0.072
160 | 93VU HEADNECK | 1.19 ± 0.012
161 | 143B BONE | 1.11 ± 0.099
162 | A549 LUNG | 1.07 ± 0.023
